Results published in the CheMixHub viscosity set.

Test: xn = mol fraction of the nth substance listed
Settings: 101 kPa

CC(=O)NCC(=O)O + O
viscosity [mPa·s]
Settings	305.15 K	310.15 K	315.15 K
x1 = 3.6e-05	0.7912	0.7079	0.6523
x1 = 7.24e-05	0.7987	0.7201	0.6594
x1 = 0.000108	0.8032	0.7298	0.6613
x1 = 0.000144	0.8098	0.7307	0.6623
x1 = 0.0001823	0.8102	0.7321	0.6627
x1 = 0.000344	0.8162	0.7345	0.6658
x1 = 0.0007167	0.8254	0.7372	0.6685
x1 = 0.001025	0.8325	0.7401	0.6724
x1 = 0.001416	0.8398	0.7443	0.6751
x1 = 0.001792	0.8466	0.7473	0.6785
x1 = 0.002155	0.8523	0.7499	0.6822
x1 = 0.002607	0.8583	0.7554	0.6887
x1 = 0.003011	0.8641	0.7603	0.6933
x1 = 0.003546	0.8721	0.7654	0.6996

CC1CCC(=O)O1 (stereo not given) + O
viscosity [mPa·s]
Settings	x1 = 0.0503	x1 = 0.0995	x1 = 0.1997	x1 = 0.2994	x1 = 0.3997	x1 = 0.499	x1 = 0.5994	x1 = 0.701	x1 = 0.7995	x1 = 0.8996
298.15 K	1.405	1.747	2.113	2.204	2.169	2.055	1.998	1.902	1.856	1.823
303.15 K	1.243	1.533	1.852	1.939	1.921	1.831	1.786	1.719	1.689	1.671
308.15 K	1.107	1.357	1.638	1.721	1.714	1.65	1.612	1.566	1.545	1.538
313.15 K	0.962	1.193	1.449	1.529	1.531	1.487	1.454	1.426	1.408	1.407
318.15 K	0.8912	1.089	1.31	1.384	1.392	1.36	1.342	1.32	1.311	1.314

CCCC[N+](CCCC)(CCCC)CCCC.O=[N+]([O-])[O-] + O
viscosity [mPa·s]
Settings	298.15 K	308.15 K	318.15 K	323.15 K
x1 = 0.000175	0.9058	0.7311	0.6051	0.5548
x1 = 0.0007208	0.9399	0.7555	0.6231	0.5704
x1 = 0.0009037	0.9512	0.7635	0.629	0.5756
x1 = 0.001282	0.9739	0.7798	0.6411	0.586
x1 = 0.001513	0.9877	0.7898	0.6484	0.5923
x1 = 0.002132	1.024	0.8156	0.6675	0.609
x1 = 0.00641	1.328	1.024	0.8259	0.747
x1 = 0.006556	1.335	1.035	0.8318	0.7536
x1 = 0.009813	1.592	1.21	0.9594	0.8647
x1 = 0.0134	1.907	1.431	1.107	1.002
x1 = 0.0182	2.346	1.735	1.333	1.182
x1 = 0.01938	2.474	1.813	1.399	1.241
x1 = 0.02698	3.292	2.346	1.808	1.573
x1 = 0.03856	4.744	3.175	2.424	2.123
x1 = 0.06582	8.699	5.748	4.183	3.578
x1 = 0.08624	12.21	7.98	5.611	4.732
x1 = 0.1165	18.05	11.05	7.815	6.642
